Data on 8 compounds can be found in patent US9598391B2, “Substituted chroman compounds as calcium sensing receptor modulators” (LUPIN LIMITED, priority 2012, dated 2017).

For orientation: EC50 means the concentration at which the effect is half-maximal.

Where a name gives a salt, the structure may show the parent alone.

For this experiment, the target named is T1, Calcium Sensing Receptor (CaSR) (Homo sapiens, UniProt P41180).
T1 construct: expressed in transfected cells
T1 sequence (P41180 20-1078): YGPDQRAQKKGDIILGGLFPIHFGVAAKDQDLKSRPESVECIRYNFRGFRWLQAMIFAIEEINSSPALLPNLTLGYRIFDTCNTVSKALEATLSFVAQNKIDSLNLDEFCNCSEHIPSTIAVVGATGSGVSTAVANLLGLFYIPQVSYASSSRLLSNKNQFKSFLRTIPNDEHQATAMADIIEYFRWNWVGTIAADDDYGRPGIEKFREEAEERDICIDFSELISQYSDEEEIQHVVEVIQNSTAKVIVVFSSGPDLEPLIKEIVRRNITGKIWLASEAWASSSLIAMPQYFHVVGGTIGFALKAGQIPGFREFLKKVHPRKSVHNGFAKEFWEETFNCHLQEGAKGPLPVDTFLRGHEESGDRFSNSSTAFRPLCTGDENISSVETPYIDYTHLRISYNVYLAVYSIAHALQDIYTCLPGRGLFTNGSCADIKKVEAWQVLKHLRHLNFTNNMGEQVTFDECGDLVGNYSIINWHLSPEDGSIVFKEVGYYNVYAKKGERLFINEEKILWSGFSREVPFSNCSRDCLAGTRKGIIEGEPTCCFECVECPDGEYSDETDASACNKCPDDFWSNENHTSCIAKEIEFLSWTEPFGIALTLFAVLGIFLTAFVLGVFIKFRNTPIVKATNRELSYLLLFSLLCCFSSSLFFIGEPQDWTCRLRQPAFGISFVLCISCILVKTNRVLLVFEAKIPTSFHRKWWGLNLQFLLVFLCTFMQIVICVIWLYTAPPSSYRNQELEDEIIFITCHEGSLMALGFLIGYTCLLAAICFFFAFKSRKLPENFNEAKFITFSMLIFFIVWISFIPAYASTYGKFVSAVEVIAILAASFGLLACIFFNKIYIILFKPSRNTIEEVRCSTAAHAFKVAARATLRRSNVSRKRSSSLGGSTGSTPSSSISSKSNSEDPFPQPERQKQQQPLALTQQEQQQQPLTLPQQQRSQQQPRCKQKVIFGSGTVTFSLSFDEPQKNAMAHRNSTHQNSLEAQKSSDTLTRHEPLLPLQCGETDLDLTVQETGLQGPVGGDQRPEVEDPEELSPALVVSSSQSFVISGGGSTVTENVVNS
The experiment in a line: In-vitro assay of calcimimetics through modulation of Calcium Sensing Receptor (intracellular calcium, FLIPR). The experiment is classed as cell-based. Conditions: HEK293 cells stably expressing hCaSR, increase in intracellular calcium, Fluo4NW dye, 0.3 mM CaCl2, 8-point assay, read-out: EC50 Range. The procedure:
In-vitro assay method of Calcimimetics through modulation of Calcium Sensing Receptor (CaSR):
The ability of the compounds to modulate Calcium sensing receptor is determined by measuring an increase in intracellular calcium [Ca^2+]i. Stably transfected HEK293 cells expressing hCaSR_pTriEx-3 hygro vector are developed. Cells are grown overnight on a 96-well plate to 80% confluency in Ham's F12 containing 20% FBS at 37° C., 5% CO2. Subsequently, cells are washed extensively with 20 mM HEPES buffer containing 126 mM […], 1 mM MgCl2 and 4 mM KCl to remove serum components that might interfere with the assay. Cells are loaded with calcium sensing Fluo4NW dye in HEPES base buffer containing 0.1% BSA and 1 mg/ml glucose for 30 minutes to measure changes in intracellular calcium. The activities of the compounds are measured in FLIPR using 0.3 mM CaCl2 in 20 mM HEPES base buffer. The effectiveness of the compound to modulate receptor activity is determined by calculating the EC50 responses for that compound in an 8-point assay and plotted using GraphPad Prism 5.
Background: A change in cytosolic calcium serves as a functional read-out for many receptors and channels.
For the compound `COc1cc([C@@H](C)NC[C@H]2C[C@@H](c3ccc(C(=O)O)c(C)c3)c3ccccc3O2)ccc1F` [Example 114, 4-((2R,4S)-2-((((R)-1-(4-Fluoro-3-methoxyphenyl)ethyl)amino)methyl)chroman-4-yl)-2-methylbenzoic acid hydrochloride], the EC50 lay within 0.05 to 0.2 µM.

As to `COc1cc([C@@H](C)NC[C@H]2C[C@@H](c3ccc(C)c(C(=O)O)c3)c3ccccc3O2)ccc1F` [Example 116, 5-((2R,4S)-2-((((R)-1-(4-Fluoro-3-methoxyphenyl)ethyl)amino)methyl)chroman-4-yl)-2-methyl benzoic acid hydrochloride], the EC50 lay in the range of 0.05 to 0.2 µM.

In the case of `Cc1ccc([C@@H]2C[C@H](CN[C@H](C)c3ccc(F)c4ccccc34)Oc3ccccc32)cc1C(=O)O` [Example 119b, 5-((2R,4S)-2-((((R)-1-(4-Fluoronaphthalen-1-yl)ethyl)amino)methyl)chroman-4-yl)-2-methyl benzoic acid hydrochloride], the EC50 is under 0.02 µM.

With `Cc1ccc([C@@H]2C[C@H](CCN[C@H](C)c3cccc4ccccc34)Oc3ccccc32)cc1C(=O)O` [Example 124, 2-Methyl-5-((2R,4S)-2-(2-(((R)-1-(naphthalen-1-yl)ethyl)amino)ethyl)chroman-4-yl)benzoic acid hydrochloride], the EC50 is under 0.02 µM.

`C[C@@H](NCCC[C@H]1C[C@@H](c2ccc(C(=O)O)cc2)c2ccccc2O1)c1ccc(F)c2ccccc12` [Example 136, 4-((2S,4S)-2-(3-(((R)-1-(4-Fluoronaphthalen-1-yl)ethyl)amino)propyl)chroman-4-yl)benzoic acid hydrochloride]: the EC50 was under 0.02 µM.

Regarding `C[C@@H](NC[C@H]1C[C@@H](c2cccc(C(=O)NCC(=O)O)c2)c2ccccc2O1)c1cccc2ccccc12` [Example 140, 2-(3-((2R,4S)-2-((((R)-1-(Naphthalen-1-yl)ethyl)amino)methyl)chroman-4-yl)benzamido) acetic acid hydrochloride], the EC50 was under 0.02 µM.

For `CCN(C)C(=O)c1cc([C@@H]2C[C@H](CN[C@H](C)c3cccc4ccccc34)Oc3ccccc32)ccc1C` [Example 145, N-Ethyl-N,2-dimethyl-5-((2R,4S)-2-((((R)-1-(naphthalen-1-yl)ethyl)amino)methyl)chroman-4-yl)benzamide hydrochloride], the EC50 lay within 0.05 to 0.2 µM.

`CCN(CC)C(=O)c1cc([C@@H]2C[C@H](CN[C@H](C)c3cccc4ccccc34)Oc3ccccc32)ccc1C` [Example 146, N,N-Diethyl-2-methyl-5-((2R,4S)-2-((((R)-1-(naphthalen-1-yl)ethyl)amino)methyl)chroman-4-yl)benzamide hydrochloride]: the EC50 lay within 0.02 to 0.05 µM.
